Entries after “also recorded” stand apart in the source; their conditions may differ. Like-named read-outs stand apart in the source and are kept apart here.
Columns and labels:
[1] = Initial screening of SHG response of powdered samples at 1064 nm; format: physicochemical; settings: ungraded powder between glass plates, pulsed Nd:YAG laser 1064 nm, green light judged by eye against ungraded urea or ADP
Text: Samples of all of the materials prepared as described above were first subjected to an initial screening with the results shown in Table 1. For this examination ungraded (as to size) powdered samples of each material were sandwiched between two glass plates which were then held in the path of a pulsed Nd:YAG laser operating at 1064 nm. (Model SL804 from Spectron Laser Systems Ltd). The SHG response was judged by viewing the intensity of green light generated (viewed through laser goggles which passed green light but stopped the fundamental 1064 nm radiation). The SHG activity was qualitatively compared to that of a reference sample which was either ungraded urea or ammonium dihydrogen phosphate (ADP).

[2] = Crystal stability on storage; format: physicochemical; settings: on standing after removal from growing solution or in sealed container
[3] = judged by eye
Text: The capability for novel materials of the invention to achieve frequency doubling into the blue area of the spectrum was examined. The light source for this investigation was a MOPO (Master Oscillator Power Oscillator) model 730-10 pumped by GCR 270-10 Nd:YAG laser (supplied by Spectra Physics). The incident pulse width output from this laser ranged from 4 ns to 6 ns. Light of a specified wavelength was directed onto a sample sandwiched between two plates in a sample holder. In order to determine the energy which was incident on a sample for each test wavelength, the sample holder was movable in and out of the light beam and an energy meter was located behind the sample position so that the light beam would be directed onto the meter when a sample was not in position. The test wavelengths used were 950 nm, 850 nm, 800 nm and 780 nm. The energy meter was a Scientech AD30 meter employing a calorimetric detector type AC2501H supplied by Scientech.
Samples of the M4, M3 and M35 materials were tested for frequency doubling effect at each of the test wavelengths, the performance of each sample being judged qualitatively by eye by examination of the frequency doubled radiation scattered from the sample. These qualatative assessments were compared with that of a similarly prepared sample of urea having the same particle size as the materials of the invention. […] The M3 and M4 samples were ungraded while the M35 sample was a 212–300 μm graded sample.

[4] = Kurtz and Perry assessment of phase matching properties; format: physicochemical; settings: graded powders 550 μm to 40 μm, 12 ns pulses at 1064 nm, fixed input pulse energy
Method: The phase matching properties of those more promising materials which performed well in the initial screening have been evaluated using the well established Kurtz and Perry technique (J Appl Phys, 1968, 39, 3798). In this method the SHG intensity (λ=532 nm) is measured as a function of the particle size for a fixed input pulse energy. […] The consequence of this is that the harmonic fields can build up in amplitude thus making the material more desirable for SHG applications.
To perform the Kurtz and Perry test powdered samples of the materials were graded using a mechanical shaker set up with a set of standard sieves (550 μm to 40 μm). The graded powders were then mounted in a thin aluminium holder placed between two glass slides. The following criteria was used to ensure the validity of the method: r<L<D where, • r=average particle size • L=thickness of the powdered sample (i.e. thickness of the aluminium spacer) • D=diameter of the laser beam incident on the sample. In the present experiments, there was at least an order of magnitude difference between these parameters.
The same laser as before was used to provide 12 ns FWHM pulses at 1064 nm. […] The magnitude of the SHG signal was measured as the number of counts using an Optical Multichannel Analyser (OMA) with an intensified array. This was preferred to a photomultiplier tube as it enabled the presence of any fluorescence or abnormal spectral emissions from the sample, for example due to damage etc., to be determined.

[5] = crystals grown from solution by lowering temperature
Method: Crystals of M4, M35 and M3 were grown from solution by lowering the temperature of the saturated solutions. The crystal growth equipment consists of a heated tank of water into which the vessel containing the saturated solution of the material is held. The glass tank is heated through a UV block filter by an infra-red lamp. The temperature is controlled by a mercury contact thermometer. The glass tank is covered by aluminium foil to exclude UV in sunlight from entering the glass tank.
(§1) Crystals of M4 have been grown using the equipment described above, both from ethanol and IPA by reduction of temperature of the saturated solutions (12 g of M4 in 820 ml of ethanol) from 40° C. to 25° C. A seed crystal, which had been previously washed with a solvent was suspended from a stirrer and carefully introduced into the saturated solution. […] Several temperature decay rates were tried.
The solubility of M35 has been determined in isopropyl alcohol/water (10:1 ratio) mixture over a temperature range of 5° C. to 40° C.

[6] = transmission spectrum
[7] = Method: as §1
[8] = wavelength 780 nm, energy 16.7 mJ
[9] = wavelength 800 nm, energy 14.8 mJ
[10] = wavelength 850 nm, energy 12.3 mJ

| Compound | SHG Response [1] | Frequency doubling compared with urea [3, 8] | Frequency doubling compared with urea [3, 9] | Frequency doubling compared with urea [3, 10] | Frequency doubling compared with urea ([3]; wavelength 950 nm, energy 9 mJ) | Phase matching (SHG signal level at 532 nm as a function of particle size) [4] | SHG activity of grown crystals [5] | also measured |
| --- | --- | --- | --- | --- | --- | --- | --- | --- |
| thiomorpholinium 3,5-dihydroxybenzoate [TM35] | slightly better than for urea |  |  |  |  |  |  |  |
| thiomorpholinium 4-hydroxybenzoate [TM4] | slightly better than for ADP |  |  |  |  |  |  | Stability of crystals [2]: unstable, with the crystals becoming opaque over time |
| Morpholinium 3,5-dihydroxybenzoate [Example M35] | slightly better than urea | better | slightly less | same or better | same or better | does not decrease for increasing particle size | high SHG activity | Stability of crystals [2]: stable and do not show any deterioration in quality; Optical transparency limit of single crystal [6]: ≥ 350 mm |
| N.O=P(O)(O)O [ADP, ammonium dihydrogen phosphate, reference compound] |  |  |  |  |  | phase matching materials |  |  |
| NC(N)=O [urea, reference compound] |  |  |  |  |  | phase matching materials |  |  |
| dimorpholinium 2,3,5,6-tetrafluoro-4-hydroxybenzoate [Example M24F4] | weaker than that of urea but better than for ADP |  |  |  |  |  |  |  |
| Morpholinium 3-hydroxybenzoate [Example M3] | slightly weaker than urea | Less | Much less | Less | Slightly less | does not decrease for increasing particle size | exhibit SHG activity |  |
| Morpholinium 4-hydroxybenzoate [Example M4] | better than for urea | Slightly less | Slightly less | Slightly less | Better | does not decrease for increasing particle size | high SHG activity | Relative solubility ([7]; IPA compared with ethanol): less soluble in IPA; Amount in saturated solution ([7]; in 820 ml of ethanol, saturated solution, 40° C.): 12 g |
| Morpholinium 3-fluoro-4-hydroxybenzoate [Example M3F4] | slightly weaker than that of urea |  |  |  |  |  |  |  |
| Morpholinium 4-hydroxycinnamate [Example M4HCA] | greater than that of urea; also recorded: better than urea |  |  |  |  |  |  |  |

Reference: patent publication US7081984B1, “Non-linear optical devices and materials therefor” (Qinetiq Limited, priority 1999, dated 2006)
